# Laboratory results from article PMC9596378, “Discovery and molecular basis of subtype-selective cyclophilin inhibitors” (Nature Chemical Biology, 2022).
# “And” between values parts separate entries of the source, which are not always exact repeats. Equal values may be shown once. Read-outs that look alike come from different tables or passages of the source.
# Assays:
# NKTR = biological target: T1, NKTR (Homo sapiens, UniProt P30414); assay: Chymotrypsin coupled prolyl-isomerase assay; format: biochemical; conditions: for NKTR prolyl-isomerase assay raw dose-response value: Fig. 3b source data, replicates
# T1 construct: NKTR (UniProtKB Entry P30414: residues 7–179); host or cells: E. coli BL21(DE3)
# T1 sequence (P30414 7-179): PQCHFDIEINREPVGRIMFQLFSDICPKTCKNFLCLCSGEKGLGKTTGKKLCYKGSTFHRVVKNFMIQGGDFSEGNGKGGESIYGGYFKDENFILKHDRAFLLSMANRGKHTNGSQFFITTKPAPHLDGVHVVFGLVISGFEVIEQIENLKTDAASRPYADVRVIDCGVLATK
# PPIL1 = biological target: T2, PPIL1 (Homo sapiens, UniProt Q9Y3C6); assay: Chymotrypsin coupled prolyl-isomerase assay; format: biochemical; conditions: for PPIL1 prolyl-isomerase assay raw dose-response value: Fig. 3b source data, replicates
# T2 construct: PPIL1 (UniProtKB Entry Q9Y3C6: residues 1–166); made in house; host or cells: E. coli BL21(DE3)
# T2 sequence (Q9Y3C6 1-166): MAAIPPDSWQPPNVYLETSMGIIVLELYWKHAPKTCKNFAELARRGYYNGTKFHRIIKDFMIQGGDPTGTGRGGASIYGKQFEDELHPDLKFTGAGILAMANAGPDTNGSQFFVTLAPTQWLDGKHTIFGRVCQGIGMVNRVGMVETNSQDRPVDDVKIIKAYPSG
# CypB = biological target: T3, CypB (Homo sapiens, UniProt P23284); assay: biochemical; conditions: for CypB prolyl-isomerase assay raw dose-response value: Fig. 3b source data, replicates
# T3 construct: PPIB (UniProtKB Entry P23284: residues 34–216); His6 with TEV site (2BT vector leader) (N); made in house; host or cells: E. coli BL21(DE3)
# In short: (§1)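 5 nM Cyp, HEPES pH 7.3/NaCl/Triton buffer, 2–3 °C; cpd 5 min, chymotrypsin 25 µM 5 min, then Suc-AAPF-AMC 5 µM in LiCl/TFE. Kinetic fluorescence 330 s. Per-well rate constants, normalized, IC50 from nonlinear fit.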
# CypC = biological target: T4, CypC (Homo sapiens, UniProt P45877); assay: Chymotrypsin coupled prolyl-isomerase assay; format: biochemical; conditions: for CypC prolyl-isomerase assay raw dose-response value: Fig. 3b source data, replicates
# T4 construct: PPIC (UniProtKB Entry P45877: residues 24–212); host or cells: E. coli BL21(DE3)
# In short: as §1
# CypE = biological target: T5, CypE (Homo sapiens, UniProt Q9UNP9); assay: Chymotrypsin coupled prolyl-isomerase assay; format: biochemical; conditions: Dose 0.000457247 µM; Fig. 3b source data, replicates
# T5 construct: PPIE (UniProtKB Entry Q9UNP9: residues 131–301); host or cells: E. coli BL21(DE3)
# In short: as §1
# T3 sequence (P23284 34-216): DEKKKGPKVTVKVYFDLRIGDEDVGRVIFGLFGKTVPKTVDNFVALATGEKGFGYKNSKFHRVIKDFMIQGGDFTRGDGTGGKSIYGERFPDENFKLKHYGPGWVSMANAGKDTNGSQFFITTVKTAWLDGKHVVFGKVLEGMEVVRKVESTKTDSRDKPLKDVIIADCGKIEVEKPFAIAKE
# T5 sequence (Q9UNP9 131-301): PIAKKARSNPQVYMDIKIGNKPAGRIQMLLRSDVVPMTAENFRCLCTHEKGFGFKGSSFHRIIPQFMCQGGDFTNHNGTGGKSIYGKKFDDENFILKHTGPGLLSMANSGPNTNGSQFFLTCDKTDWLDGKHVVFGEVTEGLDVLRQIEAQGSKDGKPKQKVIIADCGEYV
# T4 sequence (P45877 24-212): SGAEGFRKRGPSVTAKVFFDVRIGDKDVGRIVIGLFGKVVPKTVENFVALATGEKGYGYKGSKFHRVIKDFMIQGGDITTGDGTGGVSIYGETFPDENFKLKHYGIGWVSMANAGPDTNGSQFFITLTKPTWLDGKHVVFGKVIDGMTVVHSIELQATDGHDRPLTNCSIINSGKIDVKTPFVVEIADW
structure (smiles),measurement,setting,value
NCCOCCNC(=O)[C@@H]1CCNC(=O)/C=C/C(=O)N2CCC[C@](Cc3ccccc3)(C2)C(=O)N[C@@H](Cc2ccc(-c3ccc(C#CC(=O)O)cc3)cc2)C(=O)NCc2ccccc2CC(=O)N1 [Compound B25],NKTR prolyl-isomerase assay raw dose-response value,NKTR; Dose 0.0228624 µM,0.03241 and 0.03231 and 0.03444
same,NKTR prolyl-isomerase assay raw dose-response value,NKTR; Dose 0.0685871 µM,0.03299 and 0.03067 and 0.03202
same,NKTR prolyl-isomerase assay raw dose-response value,NKTR; Dose 0.205761 µM,0.03236 and 0.03203
same,NKTR prolyl-isomerase assay raw dose-response value,NKTR; Dose 0.617284 µM,0.03089 and 0.03188 and 0.03316
same,NKTR prolyl-isomerase assay raw dose-response value,NKTR; Dose 1.85185 µM,0.03191 and 0.03168 and 0.03161
same,NKTR prolyl-isomerase assay raw dose-response value,NKTR; Dose 5.55556 µM,0.03134 and 0.03255 and 0.03129
same,NKTR prolyl-isomerase assay raw dose-response value,NKTR; Dose 16.6667 µM,0.03138 and 0.0295 and 0.03008
same,NKTR prolyl-isomerase assay raw dose-response value,NKTR; Dose 50 µM,0.02697 and 0.02369 and 0.02457
same,IC50,"NKTR; wild-type NKTR, read-out: Wild-Type Cyclophilin Prolyl Isomerase Inhibition IC50 Values, NKTR",> 50000 nM
same,PPIL1 prolyl-isomerase assay raw dose-response value,PPIL1; Dose 0.0228624 µM,0.0374 and 0.04134 and 0.04686
same,PPIL1 prolyl-isomerase assay raw dose-response value,PPIL1; Dose 0.0685871 µM,0.02743 and 0.02671 and 0.02724
same,PPIL1 prolyl-isomerase assay raw dose-response value,PPIL1; Dose 0.205761 µM,0.01848 and 0.01869
same,PPIL1 prolyl-isomerase assay raw dose-response value,PPIL1; Dose 0.617284 µM,0.01432 and 0.01378 and 0.01288
same,PPIL1 prolyl-isomerase assay raw dose-response value,PPIL1; Dose 1.85185 µM,0.01263 and 0.01274 and 0.01211
same,PPIL1 prolyl-isomerase assay raw dose-response value,PPIL1; Dose 5.55556 µM,0.01183 and 0.01164 and 0.01059
same,PPIL1 prolyl-isomerase assay raw dose-response value,PPIL1; Dose 16.6667 µM,0.01229 and 0.01158 and 0.01139
same,PPIL1 prolyl-isomerase assay raw dose-response value,PPIL1; Dose 50 µM,0.01421 and 0.01181 and 0.01108
same,IC50,"PPIL1; wild-type PPIL1, read-out: Wild-Type Cyclophilin Prolyl Isomerase Inhibition IC50 Values, PPIL1",20 nM
same,IC50,"CypB; CypB (comparator for CypB E121S), read-out: Mutant Cyclophilin Prolyl Isomerase Inhibition IC50 Values, CypB",11 nM
same,CypB prolyl-isomerase assay raw dose-response value,CypB; Dose 0.000457247 µM,0.06463 and 0.04091 and 0.06594
same,CypB prolyl-isomerase assay raw dose-response value,CypB; Dose 0.00137174 µM,0.06615 and 0.04875 and 0.05304
same,CypB prolyl-isomerase assay raw dose-response value,CypB; Dose 0.00411523 µM,0.04683 and 0.04984
same,CypB prolyl-isomerase assay raw dose-response value,CypB; Dose 0.0123457 µM,0.03647 and 0.03228 and 0.03371
same,CypB prolyl-isomerase assay raw dose-response value,CypB; Dose 0.037037 µM,0.02322 and 0.02268 and 0.02146
same,CypB prolyl-isomerase assay raw dose-response value,CypB; Dose 0.111111 µM,0.01709 and 0.01633 and 0.0158
same,CypB prolyl-isomerase assay raw dose-response value,CypB; Dose 0.333333 µM,0.01481 and 0.01358 and 0.01262
same,CypB prolyl-isomerase assay raw dose-response value,CypB; Dose 1 µM,0.01394 and 0.01269 and 0.01205
same,IC50,"CypB; prolyl-isomerase inhibition, 5 nM cyclophilin, read-out: IC50 CypB",11 ± 3 nM
same,IC50,"CypB; wild-type CypB, read-out: Wild-Type Cyclophilin Prolyl Isomerase Inhibition IC50 Values, CypB",11 nM
same,CypC prolyl-isomerase assay raw dose-response value,CypC; Dose 0.0228624 µM,0.03634 and 0.03032 and 0.04283
same,CypC prolyl-isomerase assay raw dose-response value,CypC; Dose 0.0685871 µM,0.03426 and 0.03095 and 0.03961
same,CypC prolyl-isomerase assay raw dose-response value,CypC; Dose 0.205761 µM,0.03174 and 0.03534
same,CypC prolyl-isomerase assay raw dose-response value,CypC; Dose 0.617284 µM,0.02955 and 0.03116 and 0.0299
same,CypC prolyl-isomerase assay raw dose-response value,CypC; Dose 1.85185 µM,0.02445 and 0.02477 and 0.02432
same,CypC prolyl-isomerase assay raw dose-response value,CypC; Dose 5.55556 µM,0.0192 and 0.01832 and 0.02111
same,CypC prolyl-isomerase assay raw dose-response value,CypC; Dose 16.6667 µM,0.016 and 0.01339 and 0.01312
same,CypC prolyl-isomerase assay raw dose-response value,CypC; Dose 50 µM,0.01835 and 0.01198 and 0.01251
same,IC50,"CypC; wild-type CypC, read-out: Wild-Type Cyclophilin Prolyl Isomerase Inhibition IC50 Values, CypC",1800 nM
same,CypE prolyl-isomerase assay raw dose-response value,CypE,0.09478 and 0.08516 and 0.1307
